Laboratory results as given in paper PMC9995496, “A screen for MeCP2-TBL1 interaction inhibitors using a luminescence-based assay” (Scientific Reports, 2023).
Where a name gives a salt, the structure may show the parent alone.

Each molecule was assayed on PRKACA-PRKAR2A interaction (SmBiT-PRKACA / LgBiT-PRKAR2A), protein kinase A. Conditions: 0.5 h, 20 µM; inhibitor.
Parameters: NanoLuc complementation counter-screen in cell extract, PRKACA with PRKAR2A, loss of luminescence, detects NanoLuc interference

| Compound | Inh (PKA) |
| --- | --- |
| COc1ccc2c(O[C@@H]3C[C@H]4C(=O)N[C@]5(C(=O)NS(=O)(=O)C6CC6)C[C@H]5/C=C\CCCCN(C)C(=O)[C@@H]4C3)cc(-c3nc(C(C)C)cs3)nc2c1C [UM0141629:01, Simeprevir] | 16.13 |
| C/C=C/c1ccc2c(c1)OCO2 [UM0133473:02, Isosafrole] | 2.424% |

Same assay, conditions: counter-screen for NanoLuc interference, 0.5 h, 20 µM, inhibitor, Inh (PKA)

| Compound | Inh (PKA) [%] |
| --- | --- |
| N[C@@H](CC(=O)N1CCn2c(nnc2C(F)(F)F)C1)Cc1cc(F)c(F)cc1F [UM0142834:01, Sitagliptin (phosphate)] | -0.1445 |
| CC(=O)c1c(C)c2cnc(Nc3ccc(N4CCNCC4)cn3)nc2n(C2CCCC2)c1=O [UM0141983:01, PD 0332991 (Palbociclib) HCl] | 11.32 |
| O=C(O)/C=C/c1ccc(Cn2ccnc2)cc1 [UM0134313:02, Ozagrel HCl] | -0.66 |
| CS(=O)(=O)CCNCc1ccc(-c2ccc3ncnc(Nc4ccc(OCc5cccc(F)c5)c(Cl)c4)c3c2)o1 [UM0127953:02, Lapatinib] | 55.05 |

Same assay, conditions: counter-screen for NanoLuc interference; 0.5 h, 20 µM; inhibitor

| Compound | Inh (PKA) [%] |
| --- | --- |
| O=C(c1ccc(F)c(F)c1Nc1ccc(I)cc1F)N1CC(O)([C@@H]2CCCCN2)C1 [UM0141533:01, Cobimetinib] | 6.124 |
| Cc1nc(Nc2ncc(C(=O)Nc3c(C)cccc3Cl)s2)cc(N2CCN(CCO)CC2)n1 [UM0127943:04, Dasatinib (BMS-354825)] | 9.592 |
| CC(C)(C)c1nc2c3cc[nH]c(=O)c3c3cc(F)ccc3c2[nH]1 [UM0127875:02, Pyridone 6] | 10.77 |
| NC[C@H]1O[C@H](O[C@H]2[C@H](O[C@@H]3O[C@H](CO)[C@@H](O)[C@H]3O)[C@@H](O)[C@H](N)C[C@@H]2N)[C@H](N)[C@@H](O)[C@@H]1O [UM0142378:01, Ribostamycin Sulfate] | 35.19 |
| COc1cc2ncnc(Nc3ccc(O)cc3)c2cc1OC [UM0141567:01, JANEX-1] | 3.268 |
| CCCCc1oc2ccc(NS(C)(=O)=O)cc2c1C(=O)c1ccc(OCCCN(CCCC)CCCC)cc1 [UM0141544:01, Dronedarone] | 6.648 |
| Cc1c(O)cccc1C(=O)N[C@@H](CSc1ccccc1)[C@H](O)CN1C[C@H]2CCCC[C@H]2C[C@H]1C(=O)NC(C)(C)C [UM0141590:01, Nelfinavir Mesylate] | 3.843 |
| CCNC(=O)c1noc(-c2cc(C(C)C)c(O)cc2O)c1-c1ccc(CN2CCOCC2)cc1 [UM0141684:01, AUY922 (NVP-AUY922)] | 15.87 |
| Cc1ccc2c(=O)c3cccc(CC(=O)O)c3oc2c1C [UM0141964:01, DMXAA (Vadimezan)] | 2.691 |
| CCn1nnc2c(N3CCOCC3)nc(-c3ccc(NC(=O)Nc4ccc(C(=O)N5CCN(C)CC5)cc4)cc3)nc21 [UM0142067:01, PKI-402] | 0.4885 |
| CNCCc1ccccn1 [UM0132794:02, Betahistine 2HCl] | 2.049 |
| C=CCc1cccc(/C=N/NC(=O)CN2CCN(Cc3ccccc3)CC2)c1O [UM0141933:01, PAC-1] | 9.934 |
| Cc1cccc(Nc2nc(-c3ccncc3)cs2)c1 [UM0142421:01, STF-62247] | 25.96 |
| O=C1c2c(O)cc(O)cc2O[C@H](c2cc(O)c(O)c(O)c2)[C@H]1O [UM0142858:01, Dihydromyricetin] | 4.571 |
| N#Cc1ccc(OC2CCC(NC(=O)CCSc3nc4ccccc4c(=O)[nH]3)CC2)cc1 (centres unmarked) [UM0142092:01, Tankyrase Inhibitors (TNKS) 49] | 5.667 |
| COc1ccc(CNc2nc(N3CCC[C@H]3CO)ncc2C(=O)NCc2ncccn2)cc1Cl [UM0141791:01, Avanafil] | 18.48 |
| CCN=C1N[C@@H]2[C@@H](O)[C@H](O)[C@@H](CO)O[C@@H]2S1 [UM0142409:01, Thiamet G] | -0.5508 |
| Cc1cc(/C=C/C#N)cc(C)c1Nc1ccnc(Nc2ccc(C#N)cc2)n1 [UM0141618:01, Rilpivirine] | 30.56 |
| CC(=O)Nc1ccc(NC(=S)NC(=O)c2ccc(C(C)(C)C)cc2)cc1 [UM0075879:02, Tenovin-1] | 12.95 |

| Compound | Inh (PKA) [%] |
| --- | --- |
| Cc1ccc(C(=O)N(CCCN)[C@@H](c2nc3cc(Cl)ccc3c(=O)n2Cc2ccccc2)C(C)C)cc1 [UM0141883:01, Ispinesib (SB-715992)] | 12.18 |
| CCN1CCN(Cc2ccc(Nc3ncc(F)c(-c4cc(F)c5nc(C)n(C(C)C)c5c4)n3)nc2)CC1 [UM0141414:01, LY2835219] | 8.649 |
| O=C(NCCN1CCOCC1)c1ccc(Cl)cc1 [UM0134186:02, Moclobemide (Ro 111163)] | 0.401 |
| COC(=O)Nc1nc2cc(C(=O)c3cccs3)ccc2[nH]1 [UM0118368:03, Nocodazole] | 9.707 |
| O=C(NC1CCNCC1)c1n[nH]cc1NC(=O)c1c(Cl)cccc1Cl [UM0141905:01, AT7519] | 0.5831 |
| CCOC(=O)C1=C[C@]2(CC)CCCN3CCc4c(n1c1ccccc41)[C@@H]32 [UM0142468:01, Vinpocetine] | 12.65 |
| COc1ccc2c(c1)c(C1=C(c3c[nH]c4ccccc34)C(=O)NC1=O)cn2CCCN(C)C [UM0127865:02, Go 6983] | 49.99 |
| c1ccc2c(c1)CCCC2C1=NCCN1 (centres unmarked) [UM0142214:01, Tetrahydrozoline HCl] | -0.4463 |
| Cc1cnc(CNC(=O)c2c(=O)c3ccc(N4CCCN(C)CC4)nc3n3c2sc2ccccc23)cn1 [UM0142001:01, CX-5461] | 4.891 |
| CCCCC(CC)CNC(=N)NC(=N)NCCCCCCNC(=N)NC(=N)NCC(CC)CCCC (centres unmarked) [UM0118099:03, Alexidine dihydrochloride] | 24.16 |
| Oc1c2ccccc2c2c3c(cccc13)N=N2 [UM0051399:06, SP 600125] | 23.18 |
| Cn1cc(-c2ccc3nnc(Sc4ccc5ncccc5c4)n3n2)cn1 [UM0141386:01, SGX-523] | 2.769 |
| COc1ccnc2[nH]cc(C(=O)C(=O)N3CCN(C(=O)c4ccccc4)C[C@H]3C)c12 [UM0142297:01, BMS-378806] | 0.2509 |
| Fc1ccc(C(c2ccc(F)cc2)N2CCN(C/C=C/c3ccccc3)CC2)cc1 [flunarizine] | 10.34 |
| CC#CC(=O)Nc1ccc2ncnc(Nc3cccc(Br)c3)c2c1 [UM0142687:01, CL-387785 (EKI-785)] | 17.86 |
| Cc1cn([C@@H]2C[C@@H](O)[C@H](CO)O2)c(=O)[nH]c1=O [UM0142074:01, Telbivudine] | -0.434 |
| O=c1ccc2cc(O)c(O)cc2o1 [UM0132846:02, 6,7-Dihydroxycoumarin] | 4.392 |
| CO[C@@H](C(=O)N1Cc2[nH]nc(NC(=O)c3ccc(N4CCN(C)CC4)cc3)c2C1)c1ccccc1 [UM0141713:01, Danusertib (PHA-739358)] | 4.91 |
| Cc1ccc(/C=C2\CNC/C(=C\c3ccc(C)cc3)C2=O)cc1 [UM0141659:01, NSC 632839 hydrochloride] | 12.94 |

| Compound | Inh (PKA) [%] |
| --- | --- |
| CCc1c(-c2ccccc2)c(-c2ccccc2)nn1-c1ccccc1-c1cccc(OCC(=O)O)c1 [UM0142801:01, BMS 309403] | 85.65 |
| Nc1ccc2cc3ccc(N)cc3nc2c1 [UM0142377:01, Proflavine Hemisulfate] | 0.7107 |
| NC[C@@H]1O[C@H](O[C@H]2[C@@H](O)[C@H](O[C@@H]3[C@@H](O)[C@H](N)C[C@H](N)[C@H]3O[C@H]3O[C@H](CN)[C@@H](O)[C@H](O)[C@H]3N)O[C@@H]2CO)[C@H](N)[C@@H](O)[C@@H]1O [UM0142371:01, Neomycin sulfate] | 1.127 |
| C[C@H]1[C@H](C)CC[C@]2(C(=O)O)CC[C@]3(C)C(=CC[C@@H]4[C@@]5(C)C[C@@H](O)[C@H](O)[C@@](C)(CO)[C@@H]5CC[C@]43C)[C@H]12 [UM0142843:01, Asiatic acid] | 9.304 |
| CCCCCCCCCCC[C@@H](C[C@@H]1OC(=O)[C@H]1CCCCCC)OC(=O)[C@H](CC(C)C)NC=O [UM0119382:03, Orlistat] | -0.3481 |
| CC(C)c1ccccc1Cc1cc(C(=O)Nc2ccc(S(=O)(=O)c3ccccc3C(C)(C)C)cc2)c(O)c(O)c1O [UM0141770:01, TW-37] | 2.732 |
| CC(C)CCCCC(=O)N[C@@H](CO)C(=O)N[C@@H](CC(C)C)C(=O)[C@@]1(CO)CO1 [UM0141930:01, Dihydroeponemycin] | 3.421 |
| CN[C@H]1C[C@@H](N)[C@H](O)[C@@H](O[C@@H]2O[C@H](CO)[C@H](O)[C@@H]3OC4(O[C@H]23)O[C@H]([C@@H](N)CO)[C@H](O)[C@H](O)[C@H]4O)[C@@H]1O (some centres unmarked) [UM0141464:01, Hygromycin B] | 0.3498 |
| CN(C)c1ccc(O)c2c1C[C@H]1C[C@H]3[C@H](N(C)C)C(O)=C(C(N)=O)C(=O)[C@@]3(O)C(O)=C1C2=O [UM0142369:01, Minocycline HCl] | 5.155 |
| C[C@H]1CO[C@@H]2Cn3cc(C(=O)NCc4ccc(F)cc4F)c(=O)c(O)c3C(=O)N12 [UM0142091:01, GSK744 (S/GSK1265744)] | 7.532 |
| O=C1CCc2c(ccc3ccccc23)O1 [UM0128542:02, Splitomicin] | 1.175 |
| CC(C)c1onc(-c2c(Cl)cccc2Cl)c1COc1ccc(/C=C/c2cccc(C(=O)O)c2)c(Cl)c1 [UM0142293:01, GW4064] | 30.87 |
| CN(C)Cc1cccc(N/C(=C2\C(=O)Nc3cc(C(N)=O)ccc32)c2ccccc2)c1 [UM0141912:01, BIX 02188] | 13.5 |
| C[C@@H](c1ncncc1F)[C@](O)(Cn1cncn1)c1ccc(F)cc1F [UM0141780:01, Voriconazole] | 0.951 |
| O=C(O)CC(O)(CC(=O)O)C(=O)O [UM0121350:03, Lithium Citrate] | -1.116 |
| OC[C@@H](O)[C@H](O)[C@@H](O)CO [UM0050273:05, Xylitol] | -1.935 |
| CS(=O)(=O)c1ccc(C(=O)Nc2ccc(Cl)c(-c3ccccn3)c2)c(Cl)c1 [UM0135488:02, GDC-0449 (Vismodegib)] | 8.773 |
| CNC(=O)c1ccccc1Nc1cc(Nc2ccc(N3CCOCC3)cc2OC)ncc1C(F)(F)F [UM0141607:01, PND-1186] | 14.93 |
